In publication PMC9435431, “Novel chemical entities inhibiting Mycobacterium tuberculosis growth identified by phenotypic high-throughput screening” (Scientific Reports, 2022):
≈ marks a conversion by molar mass, not a printed value. Where two headings read alike, the source gives them in different places.

Test system: wild-type M. tuberculosis
Assay: microbe, parasite or virus in culture
Format: cell-based, Mycobacterium tuberculosis
Details: for MIC / IC90: Mycobacterium tuberculosis; for MIC: read-out: MIC

SMILES | anti-tubercular activity (in words) | MIC (120 h) | MIC | IC90
CC(C)(C)NC(=O)N1CCC(c2ccccc2)CC1 [Molecule 4PP-11, N-(tert-butyl)-4-phenylpiperidine-1-carboxamide] | lost activity | > 20 µM | – | –
CC(C)(C)c1ccc(C2CCN(C3CCC(=O)CC3)CC2)cc1 [Molecule 4PP-20, 4-[4-(4-t-Butyl-phenyl)-piperidin-1-yl]-cyclohexanone] | loss in activity | > 20 µM | – | –
CC(C)(C)c1ccc(C2CCN(C3CCOCC3)CC2)cc1 [Molecule 4PP-24, 4-(4-(tert-Butyl)phenyl)-1-(tetrahydro-2H-pyran-4-yl)piperidine] | – | > 20 µM | > 20 µM | –
O=C(NCCc1ccc(Br)cc1)NC12CC3CC(CC(C3)C1)C2 [HBU-4] | – | – | – | 12 µM
CC(C)(C)c1ccc(C2CCN(CC3CCCCC3)CC2)cc1 [Molecule 4PP-3, 4-(4-t-Butylphenyl)-1-(cyclohexylmethyl)piperidine; 2,2,2-trifluoroacetic acid] | – | 6.8 ± 0.9 µM (≈ 2.13 µg/mL) | 6.8 µM (≈ 2.13 µg/mL) | –
CC(C)(C)c1ccc(C2CCN(S(=O)(=O)C3CCCCC3)CC2)cc1 [Molecule 4PP-5, 4-(4-(t-Butyl)phenyl)-1-(cyclohexylsulfonyl)piperidine] | lost whole-cell activity | > 20 µM | – | –
c1ccc(C2CCN(C3CCOCC3)CC2)cc1 [Molecule 4PP-26, 4-Phenyl-1-(tetrahydro-2H-pyran-4-yl)piperidine] | – | > 20 µM | > 20 µM | –
COC(=O)C1CCC(N2CCC(c3ccc(C(C)(C)C)cc3)CC2)CC1 (stereo not shown) [Molecule 4PP-18, Methyl 4-(4-(4-(tert-butyl)phenyl)piperidin-1-yl)cyclohexane-1-carboxylate] | loss in activity | > 20 µM | – | –
O=C(NC1CCCCC1)N1CCC(c2ccccc2)CC1 [Molecule 4PP-13, N-cyclohexyl-4-phenylpiperidine-1-carboxamide] | did not furnish activity | > 20 µM | – | –
OCC1(c2ccccc2)CCN(CC2CCCCC2)CC1 [Molecule 4PP-40, [1-(Cyclohexylmethyl)-4-phenyl-4-piperidyl]methanol; 2,2,2-trifluoroacetic acid] | – | > 20 µM | – | –
COC(=O)C1(c2ccccc2)CCN(CC2CCCCC2)CC1 [Molecule 4PP-39, Methyl 1-(cyclohexylmethyl)-4-phenyl-piperidine-4-carboxylate; 2,2,2-trifluoroacetic acid] | – | > 20 µM | – | –
C1=CC2(CCN(CC3CCCCC3)CC2)c2ccccc21 [Molecule 4PP-35, 1'-(Cyclohexylmethyl)spiro[indene-1,4'-piperidine]; 2,2,2-trifluoroacetic acid] | – | 6.3 ± 0.1 µM (≈ 1.77 µg/mL) | 6.3 µM (≈ 1.77 µg/mL) | –
O=C(O)C(F)(F)F.c1ccc2c(C3CCN(CC4CCCCC4)CC3)cccc2c1 [Molecule 4PP-31, 1-(Cyclohexylmethyl)-4-(1-naphthyl)piperidine; 2,2,2-trifluoroacetic acid] | – | 2.7 ± 2.4 µM | 2.7 µM | 2.7 µM
FC1CN(CC2CCCCC2)CCC1c1ccccc1.O=C(O)C(F)(F)F (stereo not shown) [Molecule 4PP-51, 1-(Cyclohexylmethyl)-3-fluoro-4-phenyl-piperidine; 2,2,2-trifluoroacetic acid] | not tolerated | > 20 µM | – | –
CC(C)(C)CC(C)(C)N1CCC(c2c[nH]c3ncccc23)CC1 [Molecule 4PP-46, 3-(1-(2,4,4-Trimethylpentan-2-yl)piperidin-4-yl)-1H-pyrrolo[2,3-b]pyridine] | inactive | > 20 µM | – | –
CCC1(N2CCC(c3ccc(C(C)(C)C)cc3)CC2)CCCCC1 [Molecule 4PP-2, 4-(4-tert-Butyl-phenyl)-1-(1-ethyl-cyclohexyl)-piperidine] | – | 2 ± 0.5 µM (≈ 0.655 µg/mL) | 2 µM (≈ 0.655 µg/mL) | –
CC(C)(C)CC(C)(C)N1CCC(c2c[nH]c3ccccc23)CC1 [Molecule 4PP-48, 3-(1-(2,4,4-Trimethylpentan-2-yl)piperidin-4-yl)-1H-indole] | – | 1.6 µM (≈ 0.5 µg/mL) | 1.6 µM (≈ 0.5 µg/mL) | –
CC(C)(C)c1ccc(C2CCN(C3CCC(C(=O)O)CC3)CC2)cc1 (stereo not shown) [Molecule 4PP-19, 4-(4-(4-(tert-Butyl)phenyl)piperidin-1-yl)cyclohexane-1-carboxylic acid] | loss in activity | > 20 µM | – | –
